In patent US20260216103A1, “USE OF LONG-ACTING ß2AR AGONIST IN PREPARATION OF DRUGS FOR TREATING CANCERS” (HONG KONG SXMETEROL PHARMACEUTICAL CO., LIMITED, priority 2023, published 2026):
Counter-ions that a name gives are not always drawn.

How the values were obtained:
[1] = system: MDA-MB-231, SW620, CT-26, H460, H1299, LLC, H446, B16F10, A375, CAL-27, KYSE-150, RT4, SU-DHL-8, PC-3, Hep G2, G-401, SNU-1, CFPAC-1, PANC-1, SF126, U2OS, Hela; experiment: tumor sphere formation assays of a variety of cancer cells (Example 6, IM); format: cell-based; settings: 1 μM, 3 μM, or 10 μM, 7 d; FIG. 32
Source text: After 7 d, tumor spheres in the control group and the IM treated group were counted and photographed, respectively.

[2] = system: cancer stem cells of 17 cancers; experiment: tumor sphere formation assays of cancer cells, summary over 17 cancers; format: cell-based; settings: summary of Examples 1-9; agonist used alone
Source text: As a gold standard for detecting the self-renewal capability of cancer stem cells in vitro, a tumor sphere formation assay may detect individual cancer stem cell that continuously self-renew in a conditioned medium and form tumor spheres consisting of multiple cells. This in vitro experiment is often used to test the responsiveness of clinical patients to anticancer drugs, and guide in vivo medication of the clinical patients.
Cancer stem cells have self-renewal capability, which determines the initiation and progression of cancers. As a gold standard for detecting the self-renewal capability of cancer stem cells in vitro, a tumor sphere formation assay may detect individual cancer stem cells that continuously self-renew in a conditioned medium and form tumor spheres consisting of multiple cells.

[3] = system: MDA-MB-231, SW620, CT-26, H460, H1299, LLC, H446, B16F10, A375, CAL-27, KYSE-150, RT4, SU-DHL-8, PC-3, Hep G2, G-401, 786-O, SNU-1, CFPAC-1, SF126, Hela; experiment: tumor sphere formation assays of a variety of cancer cells (Example 8, TH); format: cell-based; settings: 1 μM, 3 μM, or 10 μM, 7 d; FIG. 34
Source text: After 7 d, tumor spheres in the control group and the TH treated group were counted and photographed, respectively.

chronic myeloid leukemia = settings: patients, first-line treatment for chronic myeloid leukemia; cited from earlier work
[4] = system: MDA-MB-231, SW620, CT-26, H460, H446, B16F10, A375, CAL-27, KYSE-150, RT4, SU-DHL-8, PC-3, Hep G2, 786-O, CFPAC-1, PANC-1, Hela; experiment: tumor sphere formation assays of a variety of cancer cells (Example 4, CH); format: cell-based; settings: 1 μM, 3 μM, or 10 μM, 7 d; FIG. 30
Protocol: After 7 d, tumor spheres in the control group and the CH treated group were counted and photographed, respectively.
(§1) Using a One-way ANOVA analysis method and Fisher's LSD test as a post test, statistical differences in the number of tumor spheres in all the groups were analyzed (*, P<0.05; **, P<0.01; ***, P<0.001; ****, P<0.0001).

[5] = system: MDA-MB-231, SW620, CT-26, H460, H446, B16F10, A375, CAL-27, KYSE-150, RT4, SU-DHL-8, PC-3, Hep G2, SKOV3, 786-O, CFPAC-1, PANC-1, SF126, U2OS, Hela; experiment: tumor sphere formation assays of a variety of cancer cells (Example 3, BH); format: cell-based; settings: 1 μM, 3 μM, or 10 μM, 7 d; FIG. 29
Protocol: After 7 d, tumor spheres in the control group and the BH treated group were counted and photographed, respectively.
as §1

[6] = system: MDA-MB-231, SW620, CT-26, H460, H446, B16F10, A375, CAL-27, KYSE-150, RT4, SU-DHL-8, PC-3, Hep G2, SKOV3, G-401, CFPAC-1, PANC-1, SF126, U2OS, Hela; experiment: tumor sphere formation assays of a variety of cancer cells (Example 7, OH); format: cell-based; settings: 1 μM, 3 μM, or 10 μM, 7 d; FIG. 33
Source text: According to culture conditions in Table 1-Table 17 of Example 1, breast cancer cells MDA-MB-231 (A), colorectal cancer cells SW620 (B), colorectal cancer cells CT-26 (C), lung cancer cells H460 (D), lung cancer cells H446 (E), melanoma cells B16F10 (F), melanoma cells A375 (G), head and neck cancer cells CAL-27 (H), esophageal cancer cells KYSE-150 (I), bladder cancer cells RT4 (J), hematoma cells SU-DHL-8 (K), prostate cancer cells PC-3 (L), liver cancer cells Hep G2 (M), ovarian cancer cells SKOV3 (N), kidney cancer cells G-401 (O), pancreatic cancer cells CFPAC-1 (P), pancreatic cancer cells PANC-1 (Q), brain cancer cells SF126 (R), osteosarcoma cells U2OS(S), and cervical cancer cells Hela (T) were subjected to tumor sphere formation assays, and treated with olodaterol hydrochloride (OH) at concentrations of 1 μM, 3 μM, or 10 μM, respectively. After 7 d, tumor spheres in the control group and the OH treated group were counted and photographed, respectively.
as §1

[7] = system: MDA-MB-231, SW620, CT-26, H460, H446, B16F10, A375, CAL-27, KYSE-150, RT4, SU-DHL-8, PC-3, Hep G2, 786-O, CFPAC-1, PANC-1, Hela; experiment: tumor sphere formation assays of a variety of cancer cells (Example 5, FH); format: cell-based; settings: 1 μM, 3 μM, or 10 μM, 7 d; FIG. 31
Protocol: After 7 d, tumor spheres in the control group and the FH treated group were counted and photographed, respectively.
as §1

[8] = system: MDA-MB-231, SW620, CT-26, H460, H446, B16F10, A375, CAL-27, RT4, SU-DHL-8, PC-3, Hep G2, 786-O, SNU-1, CFPAC-1, PANC-1, SF126, Hela; settings: 1 μM, 3 μM, or 10 μM, 7 d; FIG. 28
Protocol: After 7 d, tumor spheres in the control group and the AT treated group were counted and photographed, respectively.
Using a One-way ANOVA analysis method and Fisher's LSD test as a post test, statistical differences in the number of tumor spheres in all the groups were analyzed (*, P<0.05; **, P<0.01; ***, P<0.001; ****, P<0.0001; n.s., no significant difference).

[9] = system: MDA-MB-231, SW620, CT-26, H460, H1299, LLC, H446, B16F10, A375, CAL-27, KYSE-150, RT4, SU-DHL-8, PC-3, Hep G2, G-401, 786-O, SNU-1, CFPAC-1, PANC-1, SF126 …; experiment: tumor sphere formation assays of a variety of cancer cells (Example 9, VT); format: cell-based; settings: 1 μM, 3 μM, or 10 μM, 7 d; FIG. 35
Source text: After 7 d, tumor spheres in the control group and the VT treated group were counted and photographed, respectively.

CCc1cc2c(cc1CC)CC(NC[C@H](O)c1ccc(O)c3[nH]c(=O)ccc13)C2 [indacaterol maleate]
number of tumor spheres (inhibition of tumor sphere formation) [1]: has therapeutic effects on a variety of types of cancer in a concentration dependent manner
self-renewal capability of cancer stem cells [2]: can significantly inhibit the self-renewal capability of cancer stem cells of 17 cancers

CC(C)(C)NCC(O)c1ccccc1Cl (stereo not shown) [tulobuterol hydrochloride]
number of tumor spheres (inhibition of tumor sphere formation) [3]: has therapeutic effects on a variety of types of cancer in a concentration dependent manner
self-renewal capability of cancer stem cells [2]: can significantly inhibit the self-renewal capability of cancer stem cells of 17 cancers

Cc1ccc(NC(=O)c2ccc(CN3CCN(C)CC3)cc2)cc1Nc1nccc(-c2cccnc2)n1 [imatinib, Imatinib]
overall 10-year survival rate (chronic myeloid leukemia): 83.3%

CC(C)(C)NCC(O)c1cc(Cl)c(N)c(Cl)c1 (stereo not shown) [clenbuterol hydrochloride]
self-renewal capability of cancer stem cells [2]: can significantly inhibit the self-renewal capability of cancer stem cells of 17 cancers
number of tumor spheres (inhibition of tumor sphere formation) [4]: has therapeutic effects on a variety of types of cancer in a concentration dependent manner

CN(C)C(=O)Oc1cc(OC(=O)N(C)C)cc(C(O)CNC(C)(C)C)c1 (stereo not shown) [bambuterol hydrochloride]
number of tumor spheres (inhibition of tumor sphere formation) [5]: has therapeutic effects on a variety of types of cancer in a concentration dependent manner
self-renewal capability of cancer stem cells [2]: can significantly inhibit the self-renewal capability of cancer stem cells of 17 cancers

COc1ccc(CC(C)(C)NC[C@H](O)c2cc(O)cc3c2OCC(=O)N3)cc1 [olodaterol hydrochloride]
self-renewal capability of cancer stem cells [2]: can significantly inhibit the self-renewal capability of cancer stem cells of 17 cancers
number of tumor spheres (inhibition of tumor sphere formation) [6]: has therapeutic effects on a variety of types of cancer in a concentration dependent manner

COc1ccc(C[C@@H](C)NC[C@H](O)c2ccc(O)c(NC=O)c2)cc1.COc1ccc(C[C@@H](C)NC[C@H](O)c2ccc(O)c(NC=O)c2)cc1.O=C(O)/C=C/C(=O)O [formoterol hemifumarate]
number of tumor spheres (inhibition of tumor sphere formation) [7]: has therapeutic effects on a variety of types of cancer in a concentration dependent manner
self-renewal capability of cancer stem cells [2]: can significantly inhibit the self-renewal capability of cancer stem cells of 17 cancers

COc1ccc(C[C@@H](C)NC[C@H](O)c2ccc(O)c(NC=O)c2)cc1 [arformoterol tartrate]
number of tumor spheres (inhibition of tumor sphere formation) [8]: has therapeutic effects on a variety of types of cancer in a concentration dependent manner

O=C(O)C(c1ccccc1)(c1ccccc1)c1ccccc1.OCc1cc([C@@H](O)CNCCCCCCOCCOCc2c(Cl)cccc2Cl)ccc1O [vilanterol trifenate]
number of tumor spheres (inhibition of tumor sphere formation) [9]: has therapeutic effects on a variety of types of cancer in a concentration dependent manner
self-renewal capability of cancer stem cells [2]: can significantly inhibit the self-renewal capability of cancer stem cells of 17 cancers
